{"source": "paper PMC4229385", "about": "(Circulation, 2014)", "biological_target": "V1AR (AVP type 1A receptor) (Homo sapiens, UniProt P37288)", "sequence (P37288 whole entry)": "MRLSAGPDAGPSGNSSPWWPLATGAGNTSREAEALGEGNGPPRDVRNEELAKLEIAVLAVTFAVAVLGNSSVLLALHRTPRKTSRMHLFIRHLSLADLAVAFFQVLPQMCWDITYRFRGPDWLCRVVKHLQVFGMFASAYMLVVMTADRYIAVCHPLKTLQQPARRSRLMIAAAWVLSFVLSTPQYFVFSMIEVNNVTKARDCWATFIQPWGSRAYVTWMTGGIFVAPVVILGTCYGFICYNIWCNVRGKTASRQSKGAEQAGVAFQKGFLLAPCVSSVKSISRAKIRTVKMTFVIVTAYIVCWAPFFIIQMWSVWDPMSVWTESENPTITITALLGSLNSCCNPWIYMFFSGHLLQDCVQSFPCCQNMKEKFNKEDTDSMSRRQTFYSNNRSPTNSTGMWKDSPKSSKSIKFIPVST", "experiment": "DAGR FRET assay, block of AVP-induced DAG generation at […]", "format": "cell-based"}
{"compound": "COc1ccc(S(=O)(=O)N2c3ccc(Cl)cc3[C@](O)(c3ccccc3Cl)[C@@H]2C(=O)N2CCC[C@H]2C(N)=O)cc1OC", "note": "[SR 49059]", "values": [{"measurement": "DAGR FRET assay, block of AVP-induced DAG generation at 10 μM", "result": "it completely blocked AVP-dependent DAG production (Fig. 4E)"}]}
